Patent publication US20250242170A1, “Methods and Systems for Improving Photodynamic Therapy by Increasing Depth of Penetration Without Concurrently Increasing Energy Deposition” (priority 2024, published 2025)

How the values were obtained:
Glioblastoma multiforme = assay: Use case: PDT and SONG laser in treatment of glioblastoma multiforme; format: in vivo, human
Excerpt: The process is further described within a use case scenario of treating a person diagnosed with glioblastoma multiforme. Glioblastoma multiforme is the most aggressive of the brain cancers characterized by rapid growth and extensions throughout the brain making it surgically incurable. Prognosis without treatment is usually 3 months and with maximum treatment only 18 months. The conventional treatment protocol is neurosurgical debulking, targeted and whole brain radiation, followed by 6 months of chemotherapy with Temodar. After these treatments have been exhausted and disease recurs the prognosis is very poor and short term.
The patient described in the stated use case received debulking neurosurgery, targeted radiation to the areas of visible mass, followed by whole brain radiation, and then 6 months of Temodar. After these treatments they suffered memory loss and emotional instability.
A month after completing their last cycle of chemotherapy, the patient received the SONG Laser-based photodynamic therapy in accordance with the present specification, using ICG as the photo-active compound. On days 1, 2, and 3 of the treatment, the patient received 50 mg of nanoscaled or liposomal ICG. On day 3 they were treated with a SONG laser device at 810 nm near infra-red with a primary beam power of 5 Watts. From the peak power measured after going through the beam expander and SONG generator of 3.5 Watts this was reduced 60% to a measured output power of 1.4 Watts. The treated laser was applied in a beam expanded to 25 mm to the whole brain transcutaneously for 12 minutes total duration, by slowly scanning the 25 mm beam systematically over the skull under which brain substance is located. […]
In the mentioned use case, an additional adjunct to the patient's PDT treatment included administering SONG Laser activated and guided very small embryonic-like (VSEL) stem cells 3 days before the PDT cycle began. […] This procedure with SONG Laser activated and guided VSELs was repeated 1 day before the PDT procedure, except with 2.7 times the quantity of VSELs.

prostate neoplasia = assay: Use case: PDT and SONG laser in treatment of prostate neoplasia; settings: a few weeks after treatment
[1] = same methylene blue + SONG laser protocol

| Compound | MRI scan repeated, recurrence (Glioblastoma multiforme; 4 months after completing last chemotherapy, same ICG + SONG laser 810 nm protocol) | MRI scan, recurrence of Glioblastoma multiforme (Glioblastoma multiforme; a month after PDT, 50 mg nanoscaled or liposomal ICG on days 1, 2, 3, SONG laser 810 nm, 1.4 W output, whole brain, 12 min on two days, adjunct laser-activated VSELs) | memory and mood (Glioblastoma multiforme; over the next 2 months after the first MRI, same ICG + SONG laser protocol) | reduction of PSA (prostate neoplasia; 50 mg orally and also intra-rectally, 1 h wait, SONG laser 660 nm, 80 mW output, through the perineum, 10 min, PSA of 16 before) [%] | PSA level after treatment (prostate neoplasia; PSA of 16 before, same methylene blue + SONG laser protocol) | adverse effects (prostate neoplasia; [1]) | urinary symptoms (prostate neoplasia; [1]) |
| --- | --- | --- | --- | --- | --- | --- | --- |
| CC1(C)C(/C=C/C=C/C=C/C=C2\N(CCCCS(=O)(=O)O)c3ccc4ccccc4c3C2(C)C)=[N+](CCCCS(=O)(=O)[O-])c2ccc3ccccc3c21 [ICG, Indocyanine Green] | no evidence of recurrence | no evidence of recurrence | improvements in their memory and mood | – | – | – | – |
| CN(C)c1ccc2nc3ccc(=[N+](C)C)cc-3sc2c1 [methylene blue, Methylene Blue] | – | – | – | 50 | 8 | no adverse effects | improvements in urinary symptoms |
